In patent publication US20210323985A1, “SHIELDING AGENTS AND THEIR USE” (ENDOCYTE, INC., priority 2018, published 2021):

Key:
[1] = test system: LNCaP tumors; experiment: Biodistribution of Ia-Lu with or without co-administered shielding agent in nude mice bearing LNCaP tumors; type: in vivo; conditions: 4 hours; 30 nmol/kg Ia-Lu; co-administration of 1 μmol/kg shielding agent, vs Ia-Lu alone; FIG. 9
Procedure: FIG. 9 is a chart showing the biodistribution at 4 hours in nude mice bearing LNCaP tumors at 30 nmol/kg of Ia-Lu with or without co-administration of 1 μmol/kg of a shielding agent. […] In the graph for each tissue Ia-Lu alone (left bar), Ia-Lu+compound 1m (middle bar), Ia-Lu+compound 1d (S-enantiomer) (right bar).
(§1) The shielding agents of the present disclosure were administered in combination with an imaging agent of the disclosure, and the biodistribution was analyzed.

[2] = test system: 22RV1 tumors; experiment: Biodistribution of 99mTc imaging conjugate 3a co-administered with a shielding agent in nude mice bearing 22RV1 tumors; type: in vivo; conditions: 4 hours; 30 nmol/kg 99mTc imaging conjugate 3a; co-administration of 1 μmol/kg shielding agent; FIG. 8
Procedure: FIG. 8 is a chart showing the biodistribution at 4 hours in nude mice bearing 22RV1 tumors at 30 nmol/kg of ^99mTC imaging conjugate 3a with co-administration of 1 μmol/kg of a shielding agent. […] In the graph for each tissue ^99mTC imaging conjugate 3a+compound 1d (S-enantiomer) (left bar), ^99mTC imaging conjugate 3a+compound 1d (R-enantiomer) (right bar).
as §1

CCCCCCCCCCCCOC(=O)CC[C@@H](CP(=O)(O)O)C(=O)O [1d (S-enantiomer)]
Ia-Lu tumor to kidney ratio [1]: enhanced
99mTc imaging conjugate 3a tumor to kidney ratio [2]: enhanced
activity of shielding agent (comparison of enantiomers) [2]: more active than the R-enantiomer

CCCCOC(=O)CC[C@H](NC(=O)N[C@@H](CCC(=O)O)C(=O)O)C(=O)O [Compound 1m]
Ia-Lu tumor to kidney ratio [1]: enhanced
